By EC50 is commonly meant the concentration giving half of the maximal effect. Higher therefore signals a need for much substance.

Non-standard residues stand in square brackets, D forms with d. Residues, ends and D or L forms follow the SMILES beside them. *: point of attachment. PEG12 = NCCOCCOCCOCCOCCOCCOCCOCCOCCOCCOCCOCCOCCC(=O)O; Palmitoyl = CCCCCCCCCCCCCCCC(=O)*; Octanoyl = CCCCCCCC(=O)*; AEEA = NCCOCCOCC(=O)O; Aib = CC(C)(N)C(=O)O

From ChEMBL document CHEMBL5584214, “Design of MERS-CoV entry inhibitory short peptides based on helix-stabilizing strategies” (Bioorg Med Chem Lett, 2024) come the findings set out here.

The assay can be described thus: Inhibition of MERS-CoV Spike glycoprotein mediated cell-cell fusion. On the set-up: species or system Middle East respiratory syndrome-related coronavirus.
Take `CSCC[C@H](NC(=O)C(C)(C)NC(=O)[C@H](Cc1ccc(O)cc1)NC(=O)[C@@H](NC(=O)[C@H](CC(C)C)NC(=O)C(C)(C)NC(=O)[C@H](CC(C)C)NC(C)=O)[C@@H](C)O)C(=O)N[C@@H](CC(C)C)C(=O)N[C@@H](CO)C(=O)N[C@@H](CC(C)C)C(=O)N[C@@H](CCC(N)=O)C(=O)N[C@@H](CCC(N)=O)C(=O)N[C@H](C(=O)N[C@H](C(=O)N[C@@H](CCCCN)C(=O)N[C@@H](C)C(=O)N[C@@H](CC(C)C)C(=O)N[C@@H](CC(N)=O)C(=O)N[C@@H](CCC(=O)O)C(=O)N[C@@H](CO)C(=O)N[C@@H](Cc1ccc(O)cc1)C(N)=O)C(C)C)C(C)C`: the response was half-maximal at 2.33 µM (EC50).
As to `CSCC[C@H](NC(=O)[C@H](CCC(=O)O)NC(=O)[C@H](Cc1ccc(O)cc1)NC(=O)[C@@H](NC(=O)[C@H](CC(C)C)NC(=O)[C@H](CC(=O)O)NC(=O)[C@H](CC(C)C)NC(C)=O)[C@@H](C)O)C(=O)N[C@@H](CC(C)C)C(=O)N[C@@H](CO)C(=O)N[C@@H](CC(C)C)C(=O)N[C@@H](CCC(N)=O)C(=O)N[C@@H](CCC(N)=O)C(=O)N[C@H](C(=O)N[C@H](C(=O)N[C@@H](CCCCN)C(=O)N[C@@H](C)C(=O)N[C@@H](CC(C)C)C(=O)N[C@@H](CC(N)=O)C(=O)N[C@@H](CCC(=O)O)C(=O)N[C@@H](CO)C(=O)N[C@@H](Cc1ccc(O)cc1)C(N)=O)C(C)C)C(C)C`, the EC50 was greater than 50 µM.
The same measure for `CSCC[C@H](NC(=O)[C@H](CCC(=O)O)NC(=O)[C@H](Cc1ccc(O)cc1)NC(=O)[C@@H](NC(=O)[C@H](CC(C)C)NC(=O)[C@H](CC(=O)O)NC(=O)[C@H](CC(C)C)NC(C)=O)[C@@H](C)O)C(=O)N[C@@H](CC(C)C)C(=O)N[C@@H](CO)C(=O)N[C@@H](CC(C)C)C(=O)N[C@@H](CCC(N)=O)C(=O)NC(C)(C)C(=O)N[C@H](C(=O)N[C@H](C(=O)N[C@@H](CCCCN)C(=O)NC(C)(C)C(=O)N[C@@H](CC(C)C)C(=O)N[C@@H](CC(N)=O)C(=O)N[C@@H](CCC(=O)O)C(=O)N[C@@H](CO)C(=O)N[C@@H](Cc1ccc(O)cc1)C(N)=O)C(C)C)C(C)C` (Ac-LDLTYEMLSLQ[Aib]VVK[Aib]LNESY-NH2): 6.66 µM; for `CCCCCCCCCCCCCCCC(=O)NCCCC[C@H](NC(=O)CCOCCOCCOCCOCCOCCOCCOCCOCCOCCOCCOCCOCCNC(=O)[C@H](Cc1ccc(O)cc1)NC(=O)[C@H](CO)NC(=O)[C@H](CCC(=O)O)NC(=O)[C@H](CC(N)=O)NC(=O)[C@H](CC(C)C)NC(=O)[C@H](CCCCN)NC(=O)[C@H](CCCCN)NC(=O)[C@@H](NC(=O)[C@@H](NC(=O)[C@H](CCC(=O)O)NC(=O)[C@H](CCC(N)=O)NC(=O)[C@H](CC(C)C)NC(=O)[C@H](CO)NC(=O)[C@H](CC(C)C)NC(=O)[C@H](CCSC)NC(=O)C(C)(C)NC(=O)[C@H](Cc1ccc(O)cc1)NC(=O)[C@@H](NC(=O)[C@H](CC(C)C)NC(=O)C(C)(C)NC(=O)[C@H](CC(C)C)NC(C)=O)[C@@H](C)O)C(C)C)C(C)C)C(N)=O` (Ac-L[Aib]LTY[Aib]MLSLQEVVKKLNESY[PEG12]K(Palmitoyl)-NH2): 1.42 µM.
The same measure for Ac-LDLTYEMASLQAVVKALNESY-NH2: greater than 50 µM.
In turn, `CSCC[C@H](NC(=O)C(C)(C)NC(=O)[C@H](Cc1ccc(O)cc1)NC(=O)[C@@H](NC(=O)[C@H](CC(C)C)NC(=O)C(C)(C)NC(=O)[C@H](CC(C)C)NC(C)=O)[C@@H](C)O)C(=O)N[C@@H](CC(C)C)C(=O)N[C@@H](CO)C(=O)N[C@@H](CC(C)C)C(=O)N[C@@H](CCC(N)=O)C(=O)N[C@@H](CCC(=O)O)C(=O)N[C@H](C(=O)N[C@H](C(=O)N[C@@H](CCCCN)C(=O)N[C@@H](CCCCN)C(=O)N[C@@H](CC(C)C)C(=O)N[C@@H](CC(N)=O)C(=O)N[C@@H](CCC(=O)O)C(=O)N[C@@H](CO)C(=O)N[C@@H](Cc1ccc(O)cc1)C(N)=O)C(C)C)C(C)C` (Ac-L[Aib]LTY[Aib]MLSLQEVVKKLNESY-NH2) came in with an EC50 of 3.62 µM.
Turning to `CSCC[C@H](NC(=O)C(C)(C)NC(=O)[C@H](Cc1ccc(O)cc1)NC(=O)[C@H](CCC(=O)O)NC(=O)[C@H](CC(C)C)NC(=O)C(C)(C)NC(=O)[C@H](CC(C)C)NC(C)=O)C(=O)N[C@@H](CCCCN)C(=O)N[C@@H](CO)C(=O)N[C@@H](CC(C)C)C(=O)N[C@@H](CCC(N)=O)C(=O)N[C@@H](CCC(N)=O)C(=O)N[C@H](C(=O)N[C@H](C(=O)N[C@@H](CCCCN)C(=O)N[C@@H](C)C(=O)N[C@@H](CC(C)C)C(=O)N[C@@H](CC(N)=O)C(=O)N[C@@H](CCC(=O)O)C(=O)N[C@@H](CO)C(=O)N[C@@H](Cc1ccc(O)cc1)C(N)=O)C(C)C)C(C)C`, the EC50 was 14.8 µM. Compared with the last compound, the EC50 is about 4.1-fold higher.
The same measure for `CSCC[C@H](NC(=O)[C@H](CCC(=O)O)NC(=O)[C@H](Cc1ccc(O)cc1)NC(=O)[C@@H](NC(=O)[C@H](CC(C)C)NC(=O)[C@H](CC(=O)O)NC(=O)[C@H](CC(C)C)NC(C)=O)[C@@H](C)O)C(=O)N[C@@H](CC(C)C)C(=O)NC(C)(C)C(=O)N[C@@H](CC(C)C)C(=O)N[C@@H](CCC(N)=O)C(=O)N[C@@H](CCC(N)=O)C(=O)NC(C)(C)C(=O)N[C@H](C(=O)N[C@@H](CCCCN)C(=O)N[C@@H](C)C(=O)N[C@@H](CC(C)C)C(=O)N[C@@H](CC(N)=O)C(=O)N[C@@H](CCC(=O)O)C(=O)N[C@@H](CO)C(=O)N[C@@H](Cc1ccc(O)cc1)C(N)=O)C(C)C` (Ac-LDLTYEML[Aib]LQQ[Aib]VKALNESY-NH2): greater than 50 µM; for `CCCCCCCC(=O)NCCCC[C@H](NC(=O)COCCOCCNC(=O)[C@H](Cc1ccc(O)cc1)NC(=O)[C@H](CO)NC(=O)[C@H](CCC(=O)O)NC(=O)[C@H](CC(N)=O)NC(=O)[C@H](CC(C)C)NC(=O)[C@H](CCCCN)NC(=O)[C@H](CCCCN)NC(=O)[C@@H](NC(=O)[C@@H](NC(=O)[C@H](CCC(=O)O)NC(=O)[C@H](CCC(N)=O)NC(=O)[C@H](CC(C)C)NC(=O)[C@H](CO)NC(=O)[C@H](CC(C)C)NC(=O)[C@H](CCSC)NC(=O)C(C)(C)NC(=O)[C@H](Cc1ccc(O)cc1)NC(=O)[C@@H](NC(=O)[C@H](CC(C)C)NC(=O)C(C)(C)NC(=O)[C@H](CC(C)C)NC(C)=O)[C@@H](C)O)C(C)C)C(C)C)C(N)=O` (Ac-L[Aib]LTY[Aib]MLSLQEVVKKLNESY[AEEA]K(Octanoyl)-NH2): 0.864 µM; for `CSCC[C@H](NC(=O)C(C)(C)NC(=O)[C@H](Cc1ccc(O)cc1)NC(=O)[C@H](CCC(=O)O)NC(=O)[C@H](CC(C)C)NC(=O)C(C)(C)NC(=O)[C@H](CC(C)C)NC(C)=O)C(=O)N[C@@H](CCCCN)C(=O)N[C@@H](CO)C(=O)N[C@@H](CC(C)C)C(=O)N[C@@H](CCC(N)=O)C(=O)N[C@@H](CCC(=O)O)C(=O)N[C@H](C(=O)N[C@H](C(=O)N[C@@H](CCCCN)C(=O)N[C@@H](CCCCN)C(=O)N[C@@H](CC(C)C)C(=O)N[C@@H](CC(N)=O)C(=O)N[C@@H](CCC(=O)O)C(=O)N[C@@H](CO)C(=O)N[C@@H](Cc1ccc(O)cc1)C(N)=O)C(C)C)C(C)C` (Ac-L[Aib]LEY[Aib]MKSLQEVVKKLNESY-NH2): 24 µM.
Then `CSCC[C@H](NC(=O)[C@H](CCC(=O)O)NC(=O)C(C)(C)NC(=O)[C@@H](NC(=O)[C@H](CC(C)C)NC(=O)[C@H](CC(=O)O)NC(=O)C(C)(C)NC(C)=O)[C@@H](C)O)C(=O)N[C@@H](CC(C)C)C(=O)N[C@@H](CO)C(=O)N[C@@H](CC(C)C)C(=O)N[C@@H](CCC(N)=O)C(=O)N[C@@H](CCC(N)=O)C(=O)N[C@H](C(=O)N[C@H](C(=O)N[C@@H](CCCCN)C(=O)N[C@@H](C)C(=O)N[C@@H](CC(C)C)C(=O)N[C@@H](CC(N)=O)C(=O)N[C@@H](CCC(=O)O)C(=O)N[C@@H](CO)C(=O)N[C@@H](Cc1ccc(O)cc1)C(N)=O)C(C)C)C(C)C`, with greater than 50 µM; and `CSCC[C@H](NC(=O)[C@H](CCC(=O)O)NC(=O)[C@H](Cc1ccc(O)cc1)NC(=O)[C@@H](NC(=O)[C@H](CC(C)C)NC(=O)[C@H](CC(=O)O)NC(=O)[C@H](CC(C)C)NC(C)=O)[C@@H](C)O)C(=O)N[C@@H](CC(C)C)C(=O)N[C@@H](CO)C(=O)N[C@@H](CC(C)C)C(=O)N[C@@H](CCC(N)=O)C(=O)N[C@@H](CCC(N)=O)C(=O)N[C@H](C(=O)N[C@H](C(=O)NC(C)(C)C(=O)N[C@@H](C)C(=O)N[C@@H](CC(C)C)C(=O)N[C@@H](CC(N)=O)C(=O)NC(C)(C)C(=O)N[C@@H](CO)C(=O)N[C@@H](Cc1ccc(O)cc1)C(N)=O)C(C)C)C(C)C`, with 3.04 µM; and `CSCC[C@H](NC(=O)[C@H](CCC(=O)O)NC(=O)[C@H](Cc1ccc(O)cc1)NC(=O)[C@@H](NC(=O)[C@H](CC(C)C)NC(=O)[C@H](CC(=O)O)NC(=O)[C@H](CC(C)C)NC(C)=O)[C@@H](C)O)C(=O)N[C@@H](CC(C)C)C(=O)N[C@@H](CO)C(=O)N[C@@H](CC(C)C)C(=O)NC(C)(C)C(=O)N[C@@H](CCC(N)=O)C(=O)N[C@H](C(=O)N[C@H](C(=O)NC(C)(C)C(=O)N[C@@H](C)C(=O)N[C@@H](CC(C)C)C(=O)N[C@@H](CC(N)=O)C(=O)N[C@@H](CCC(=O)O)C(=O)N[C@@H](CO)C(=O)N[C@@H](Cc1ccc(O)cc1)C(N)=O)C(C)C)C(C)C` (Ac-LDLTYEMLSL[Aib]QVV[Aib]ALNESY-NH2), with 2.55 µM.
The same measure for `CSCC[C@H](NC(=O)[C@H](CCC(=O)O)NC(=O)[C@H](Cc1ccc(O)cc1)NC(=O)C(C)(C)NC(=O)[C@H](CC(C)C)NC(=O)[C@H](CC(=O)O)NC(=O)[C@H](CC(C)C)NC(C)=O)C(=O)NC(C)(C)C(=O)N[C@@H](CO)C(=O)N[C@@H](CC(C)C)C(=O)N[C@@H](CCC(N)=O)C(=O)N[C@@H](CCC(N)=O)C(=O)N[C@H](C(=O)N[C@H](C(=O)N[C@@H](CCCCN)C(=O)N[C@@H](C)C(=O)N[C@@H](CC(C)C)C(=O)N[C@@H](CC(N)=O)C(=O)N[C@@H](CCC(=O)O)C(=O)N[C@@H](CO)C(=O)N[C@@H](Cc1ccc(O)cc1)C(N)=O)C(C)C)C(C)C`: 24.4 µM.
`CSCC[C@H](NC(=O)[C@H](CCC(=O)O)NC(=O)[C@H](Cc1ccc(O)cc1)NC(=O)[C@@H](NC(=O)[C@H](CC(C)C)NC(=O)[C@H](CC(=O)O)NC(=O)[C@H](CC(C)C)NC(C)=O)[C@@H](C)O)C(=O)N[C@@H](CC(C)C)C(=O)N[C@@H](CO)C(=O)N[C@@H](CC(C)C)C(=O)N[C@@H](CCC(N)=O)C(=O)N[C@@H](CCC(N)=O)C(=O)N[C@H](C(=O)N[C@H](C(=O)N[C@@H](CCCCN)C(=O)N[C@@H](C)C(=O)N[C@@H](CC(C)C)C(=O)N[C@@H](CC(N)=O)C(=O)N[C@@H](CCC(=O)O)C(=O)N[C@@H](C)C(=O)N[C@@H](Cc1ccc(O)cc1)C(N)=O)C(C)C)C(C)C`: it took 6.67 µM to reach a half-maximal effect (EC50).
